The text below walks through data of patent US12213482B2, “Fungicide enhancers effective for treating plants infected with fungal pathogens” (Board of Regents, The University of Texas System, priority 2015, dated 2025).

Assay [1] has as its system Mycosphaerella graminicola isolate FLU4-02. Briefly: Fungicide sensitivity testing by OD in 96 well plates, epoxiconazole plus enhancers. The assay is classed as cell-based. To be noted: Zymoseptoria tritici, Enhancer Concentration 0 μg ml^−1 (epoxiconazole alone; one value per enhancer series).
The subject of assay [2] is Septoria tritici isolate G3-03. Briefly: Fungicide sensitivity testing by OD in 96 well plates, fungicides plus Enhancer A.I.1. Format: cell-based.
Setting [3] is: Enhancer A.I.1 Concentration 0 μg ml^−1.
The mark [4] stands for this setting: Enhancer A.I.1 Concentration 0.003 μg ml^−1.
The mark [5] stands for this setting: Enhancer A.I.1 Concentration 0.016 μg ml^−1.
Setting [6] is: Enhancer A.I.1 Concentration 0.08 μg ml^−1.
The mark [7] stands for this setting: Enhancer A.I.1 Concentration 0.4 μg ml^−1.
[8] abbreviates: Enhancer A.I.1 Concentration 2.0 μg ml^−1.
[9] abbreviates: Enhancer A.I.1 Concentration 10 μg ml^−1.

Take `Fc1ccc([C@]2(Cn3cncn3)O[C@H]2c2ccccc2Cl)cc1` (racemic) [Epoxiconazole]: the EC50 (as a rule, the concentration at which the effect is half-maximal) in assay [1] was 0.091 µg/mL. Further, the “EC50 of the fungicide” value in assay [2] (setting [3]) was found to be 0.142 µg/mL; in assay [2] (setting [4]), 0.142 µg/mL; in assay [2] (setting [5]), 0.141 µg/mL; in assay [2] (setting [6]), 0.145 µg/mL; in assay [2] (setting [7]), 0.06 µg/mL; in assay [2] (setting [8]), 0.008 µg/mL. Also, the “EC50 of the fungicide” value in assay [2] (setting [9]) worked out at 0.004 µg/mL.

In the case of `COC(=O)Nc1nc2ccccc2[nH]1` [Carbendazim], the “EC50 of the fungicide” value in assay [2] (setting [3]), in assay [2] (setting [4]), in assay [2] (setting [5]), in assay [2] (setting [6]), in assay [2] (setting [7]) and in assay [2] (setting [8]) was above 50 µg/mL throughout. For the same compound, in assay [2] (setting [9]), the “EC50 of the fungicide” value is above 50 µg/mL.

Consider `CO/C=C(/C(=O)OC)c1ccccc1Oc1cc(Oc2ccccc2C#N)ncn1` [Azoxystrobin], for which the “EC50 of the fungicide” value in assay [2] (setting [3]) turned out to be 7.210 µg/mL; in assay [2] (setting [4]), 7.339 µg/mL; in assay [2] (setting [5]), 7.071 µg/mL; in assay [2] (setting [6]), 6.914 µg/mL; in assay [2] (setting [7]) it was 6.958 µg/mL; in assay [2] (setting [8]), 5.157 µg/mL. Further, the “EC50 of the fungicide” value in assay [2] (setting [9]) is 2.816 µg/mL.

For the compound `N#Cc1c(Cl)c(Cl)c(Cl)c(C#N)c1Cl` [Chlorothalonil], the “EC50 of the fungicide” value in assay [2] (setting [3]) worked out at 0.370 µg/mL; in assay [2] (setting [4]), 0.369 µg/mL; in assay [2] (setting [5]), 0.357 µg/mL; in assay [2] (setting [6]), 0.369 µg/mL; in assay [2] (setting [7]), 0.335 µg/mL; in assay [2] (setting [8]), 0.36 µg/mL. Besides, the “EC50 of the fungicide” value in assay [2] (setting [9]) turned out to be 0.364 µg/mL.

With `Cc1cc(C2CC2)nc(Nc2ccccc2)n1` [Cyprodinil], the “EC50 of the fungicide” value turned out to be 3.055 µg/mL in assay [2] (setting [3]); 3.135 µg/mL in assay [2] (setting [4]); 2.995 µg/mL in assay [2] (setting [5]); 2.838 µg/mL in assay [2] (setting [6]); 3.244 µg/mL in assay [2] (setting [7]); 4.046 µg/mL in assay [2] (setting [8]). Besides, in assay [2] (setting [9]), the “EC50 of the fungicide” value was 4.220 µg/mL.
